Laboratory results as given in paper PMC11845477, “Exploring the principles behind antibiotics with limited resistance” (Nature Communications, 2025).

How the values were obtained:
[1] = tested on: K. pneumoniae ATCC 10031 (SEN) and K. pneumoniae ATCC 700603 (MDR); assay: Adaptive laboratory evolution (ALE), relative MIC of evolved lines; type: cell-based, Klebsiella pneumoniae
Text: Using the same set of bacterial strains, we initiated adaptive laboratory evolution with the aim to maximize the level of antibiotic resistance in the populations achieved during a longer, but fixed time period.
An established protocol for adaptive laboratory evolution[46],[73] was followed to propagate populations with the highest resistance levels. Starting with an antibiotic concentration that caused approximately 50% growth inhibition, ten parallel populations for each antibiotic-ancestor strain combination were grown for 72 hours at 37 °C with continuous shaking (300 RPM). MHB broth medium was used unless stated otherwise. After each incubation, 20 µl of each culture was transferred to four new wells containing fresh medium with increasing antibiotic concentrations (0.5×, 1×, 1.5×, and 2.5× the previous concentration) in a chessboard layout to monitor potential cross-contamination. Growth was monitored by measuring OD600 using a Biotek Synergy 2 microplate reader, and only populations grown in the highest drug concentration with an OD600 > 0.2 were transferred further.
A robotic liquid handling system was used to automatically prepare a 11 to 16-step serial dilution in 384-well microtiter plates (Greiner). A final concentration of 5 × 10^5 bacterial cells per mL were inoculated into each well containing 60 µL MHB medium. Bacterial cultures were incubated at 37 °C with continuous shaking (Infors shaker, 900 rpm with 3 mm throw) for 18 hours (2 replicates from each). Cell growth was monitored by measuring the optical density (OD600 values, using Biotek Synergy microplate reader). MIC was defined as the antibiotic concentration of complete growth inhibition (i.e., OD600 < 0.05). Relative MIC was calculated as follows:1 relativeMIC=MICevolved/MICancestor […]
Supplementary Figure 4. Resistance levels following adaptive laboratory evolution across bacterial strains. The level of resistance was measured as the fold change in relative MIC between evolved and ancestral strains after ~60 days of adaptive laboratory evolution. Data are grouped by bacterial strain (A. baumannii (AB), E. coli (EC), K. pneumoniae (KP), and P. aeruginosa (PA)) and categorized as either multidrug-resistant (MDR) or sensitive (SEN). Each data point represents a laboratory evolved line, and boxplots show the median, first and third quartiles, with whiskers indicating the 5th and 95th percentiles.
Statistical analysis was performed using two-sided Dunn’s post-hoc test with Benjamini-Hochberg correction for multiple comparisons (****/ ***/ **/ * indicates p < 0.0001/ 0.001/ 0.01/ 0.05). For detailed information on antibiotic and bacterial species, see Supplementary Table 1. For mode of action groups, refer to Table 1. Source data are provided as a Source Data file.

[2] = tested on: P. aeruginosa ATCC BAA-3107 (SEN) and P. aeruginosa LESB58 (MDR); assay: microbe, parasite or virus in culture; type: cell-based, Pseudomonas aeruginosa; settings: for MIC: Pseudomonas aeruginosa, across three biological replicates
Protocol: (§1) This study focused on multiple bacterial strains, as follows. For the FoR and ALE experiments, 2 strains per species were chosen: E. coli ATCC 25922, K. pneumoniae ATCC 10031, A. baumannii ATCC 17978, and P. aeruginosa ATCC BAA-3107 as sensitive (SEN) strains, and E. coli NCTC13846, K. pneumoniae ATCC 700603, A. baumannii ATCC BAA-1605 and P. aeruginosa LESB58 as multi-drug resistant (MDR) strains. Functional metagenomic screens were performed with E. coli ATCC 25922 and K. pneumoniae ATCC 10031 strains. To determine the dose-kill properties of the different antibiotics, an E. coli strain (ATCC 25922) expressing a yellow fluorescent protein (pZS2R, YFP, CHL^R) and a red fluorescent protein (pZS2R, mCherry, CHL^R) was used.
(§2) Unless otherwise indicated, cation-adjusted Mueller-Hinton Broth 2 (MHB, Millipore) medium was used throughout the study, except for SCH79797 (SCH).
(§3) A robotic liquid handling system was used to automatically prepare a 11 to 16-step serial dilution in 384-well microtiter plates (Greiner). A final concentration of 5 × 10^5 bacterial cells per mL were inoculated into each well containing 60 µL MHB medium. Bacterial cultures were incubated at 37 °C with continuous shaking (Infors shaker, 900 rpm with 3 mm throw) for 18 hours (2 replicates from each). Cell growth was monitored by measuring the optical density (OD600 values, using Biotek Synergy microplate reader). MIC was defined as the antibiotic concentration of complete growth inhibition (i.e., OD600 < 0.05). Relative MIC was calculated as follows:1 relativeMIC=MICevolved/MICancestor

[3] = tested on: K. pneumoniae ATCC 10031 (SEN) and K. pneumoniae ATCC 700603 (MDR); assay: microbe, parasite or virus in culture; type: cell-based, Klebsiella pneumoniae; settings: for MIC: Klebsiella pneumoniae, across three biological replicates
Protocol: as §1, §2, §3

[4] = ATCCBAA3107, Pseudomonas aeruginosa ATCC BAA-3107 (PA-SEN)
[5] = ATCCBAA3107, Pseudomonas aeruginosa LESB 58 (PA-MDR)
[6] = Klebsiella pneumoniae ATCC 10031 (KP-SEN), ancestor strain, sheet fig 2a
[7] = Klebsiella pneumoniae ATCC 700603 (KP-MDR), ancestor strain, sheet fig 2a
[8] = Klebsiella pneumoniae ATCC 10031 (KP-SEN)
[9] = Klebsiella pneumoniae ATCC 700603 (KP-MDR)
[10] = P. aeruginosa ATCC BAA 3107 (PA-SEN), ancestor strain, sheet fig 2a

CN[C@@H]1[C@@H](O[C@H]2O[C@H](CO)[C@@H](N)[C@H](O)[C@H]2O)OC2C[C@@H](N)[C@@H](O[C@H]3[C@H](O)[C@@H](O)[C@H](N)C[C@@H]3N)OC2[C@@H]1O (stereo partly shown) [Apramycin]
Relative MIC ([1]; KP-MDR (ATCC 700603), evolved line 1, MIC of evolved line / MIC of ancestor): 8 | Relative MIC ([1]; KP-MDR (ATCC 700603), evolved line 2, MIC of evolved line / MIC of ancestor): 16 | Relative MIC ([1]; KP-MDR (ATCC 700603), evolved line 3, MIC of evolved line / MIC of ancestor): 16 | Relative MIC ([1]; KP-MDR (ATCC 700603), evolved line 4, MIC of evolved line / MIC of ancestor): 4 | Relative MIC ([1]; KP-MDR (ATCC 700603), evolved line 5, MIC of evolved line / MIC of ancestor): 16 | Relative MIC ([1]; KP-MDR (ATCC 700603), evolved line 6, MIC of evolved line / MIC of ancestor): 8 | Relative MIC ([1]; KP-MDR (ATCC 700603), evolved line 7, MIC of evolved line / MIC of ancestor): 4 | Relative MIC ([1]; KP-MDR (ATCC 700603), evolved line 8, MIC of evolved line / MIC of ancestor): 8 | Relative MIC ([1]; KP-MDR (ATCC 700603), evolved line 9, MIC of evolved line / MIC of ancestor): 16 | Relative MIC ([1]; KP-MDR (ATCC 700603), evolved line 10, MIC of evolved line / MIC of ancestor): 8 | Relative MIC (log10) ([1]; KP-MDR (Klebsiella pneumoniae ATCC 700603), evolved line 1 adapted to the named antibiotic): 0.9031 | Relative MIC (log10) ([1]; KP-MDR (Klebsiella pneumoniae ATCC 700603), evolved line 2 adapted to the named antibiotic): 1.204 | Relative MIC (log10) ([1]; KP-MDR (Klebsiella pneumoniae ATCC 700603), evolved line 3 adapted to the named antibiotic): 1.204 | Relative MIC (log10) ([1]; KP-MDR (Klebsiella pneumoniae ATCC 700603), evolved line 8 adapted to the named antibiotic): 0.9031 | Relative MIC (log10) ([1]; KP-MDR (Klebsiella pneumoniae ATCC 700603), evolved line 9 adapted to the named antibiotic): 1.204 | Relative MIC ([1]; KP-SEN (ATCC 10031), evolved line 2, MIC of evolved line / MIC of ancestor): 64 | Relative MIC ([1]; KP-SEN (ATCC 10031), evolved line 3, MIC of evolved line / MIC of ancestor): 32 | Relative MIC ([1]; KP-SEN (ATCC 10031), evolved line 5, MIC of evolved line / MIC of ancestor): 64 | Relative MIC ([1]; KP-SEN (ATCC 10031), evolved line 6, MIC of evolved line / MIC of ancestor): 64 | Relative MIC ([1]; KP-SEN (ATCC 10031), evolved line 8, MIC of evolved line / MIC of ancestor): 64 | Relative MIC ([1]; KP-SEN (ATCC 10031), evolved line 9, MIC of evolved line / MIC of ancestor): 64 | Relative MIC ([1]; KP-SEN (ATCC 10031), evolved line 10, MIC of evolved line / MIC of ancestor): 128 | Relative MIC (log10) ([1]; KP-SEN (Klebsiella pneumoniae ATCC 10031), evolved line 2 adapted to the named antibiotic): 1.806 | Relative MIC (log10) ([1]; KP-SEN (Klebsiella pneumoniae ATCC 10031), evolved line 5 adapted to the named antibiotic): 1.806 | Relative MIC (log10) ([1]; KP-SEN (Klebsiella pneumoniae ATCC 10031), evolved line 6 adapted to the named antibiotic): 1.806 | Relative MIC (log10) ([1]; KP-SEN (Klebsiella pneumoniae ATCC 10031), evolved line 8 adapted to the named antibiotic): 1.806 | Relative MIC (log10) ([1]; KP-SEN (Klebsiella pneumoniae ATCC 10031), evolved line 10 adapted to the named antibiotic): 2.107 | Relative MIC ([1]; Klebsiella pneumoniae ATCC 10031 (KP-SEN), evolved line 2): 64 | Relative MIC ([1]; Klebsiella pneumoniae ATCC 10031 (KP-SEN), evolved line 3): 32 | Relative MIC ([1]; Klebsiella pneumoniae ATCC 10031 (KP-SEN), evolved line 5): 64 | Relative MIC ([1]; Klebsiella pneumoniae ATCC 10031 (KP-SEN), evolved line 6): 64 | Relative MIC ([1]; Klebsiella pneumoniae ATCC 10031 (KP-SEN), evolved line 8): 64 | Relative MIC ([1]; Klebsiella pneumoniae ATCC 10031 (KP-SEN), evolved line 9): 64 | Relative MIC ([1]; Klebsiella pneumoniae ATCC 10031 (KP-SEN), evolved line 10): 128 | Relative MIC ([1]; Klebsiella pneumoniae ATCC 700603 (KP-MDR), evolved line 1): 8 | Relative MIC ([1]; Klebsiella pneumoniae ATCC 700603 (KP-MDR), evolved line 2): 16 | Relative MIC ([1]; Klebsiella pneumoniae ATCC 700603 (KP-MDR), evolved line 3): 16 | Relative MIC ([1]; Klebsiella pneumoniae ATCC 700603 (KP-MDR), evolved line 4): 4 | Relative MIC ([1]; Klebsiella pneumoniae ATCC 700603 (KP-MDR), evolved line 5): 16 | Relative MIC ([1]; Klebsiella pneumoniae ATCC 700603 (KP-MDR), evolved line 6): 8 | Relative MIC ([1]; Klebsiella pneumoniae ATCC 700603 (KP-MDR), evolved line 7): 4 | Relative MIC ([1]; Klebsiella pneumoniae ATCC 700603 (KP-MDR), evolved line 8): 8 | Relative MIC ([1]; Klebsiella pneumoniae ATCC 700603 (KP-MDR), evolved line 9): 16 | Relative MIC ([1]; Klebsiella pneumoniae ATCC 700603 (KP-MDR), evolved line 10): 8 | MIC [2, 4]: 8 µg/mL | MIC [2, 5]: > 32 µg/mL | MIC of ancestor ([3]; Klebsiella pneumoniae ATCC 10031 (KP-SEN), ancestor strain): 2 µg/mL | MIC of ancestor [3, 6]: 2 µg/mL | MIC of ancestor ([3]; Klebsiella pneumoniae ATCC 700603 (KP-MDR), ancestor strain): 4 µg/mL | MIC of ancestor [3, 7]: 4 µg/mL | MIC [3, 8]: 2 µg/mL | MIC [3, 9]: 4 µg/mL

C[C@@H](O)[C@H]1C(=O)N2C(C(=O)O)=C(S[C@@H]3CN[C@H](C(=O)N(C)C)C3)[C@H](C)[C@H]12 [Meropenem]
MIC of ancestor [2, 10]: 0.0312 µg/mL | MIC of ancestor ([2]; P. aeruginosa LESB 58 (PA-MDR), ancestor strain, sheet fig 2a): 2 µg/mL | MIC of ancestor ([2]; PA-MDR, Pseudomonas aeruginosa LESB 58, ancestor strain): 2 µg/mL | MIC of ancestor ([2]; PA-SEN, Pseudomonas aeruginosa ATCC BAA 3107, ancestor strain): 0.0312 µg/mL | MIC [2, 4]: 0.0312 µg/mL | MIC [2, 5]: 2 µg/mL | MIC of ancestor ([3]; KP-MDR, Klebsiella pneumoniae ATCC 700603, ancestor strain): 0.0625 µg/mL | MIC of ancestor [3, 6]: 0.0312 µg/mL | MIC of ancestor [3, 7]: 0.0625 µg/mL | MIC [3, 8]: 0.0312 µg/mL | MIC [3, 9]: 0.0625 µg/mL

COc1c(N2C[C@@H]3CCCN[C@@H]3C2)c(F)cc2c(=O)c(C(=O)O)cn(C3CC3)c12 [Moxifloxacin]
MIC of ancestor [2, 10]: 1 µg/mL | MIC of ancestor ([2]; Pseudomonas aeruginosa ATCC BAA 3107 (PA-SEN), ancestor): 1 µg/mL | MIC [2, 4]: 1 µg/mL | MIC [2, 5]: 32 µg/mL | MIC of ancestor ([3]; Klebsiella pneumoniae ATCC 10031 (KP-SEN), ancestor): 0.00781 µg/mL | MIC of ancestor [3, 6]: 0.00781 µg/mL | MIC of ancestor ([3]; Klebsiella pneumoniae ATCC 700603 (KP-MDR), ancestor): 1 µg/mL | MIC of ancestor [3, 7]: 1 µg/mL | MIC [3, 8]: 0.00781 µg/mL | MIC [3, 9]: 1 µg/mL
